{"source": "patent US12533357B2", "about": "“Treatment for acute myeloid leukemia or myelodysplastic syndrome” (UNIVERSITY HEALTH NETWORK, priority 2019, dated 2026)", "key": {"[1]": {"system": "MOLT-4 acute lymphoblastic leukemia xenograft", "assay": "MOLT-4 xenograft tumor growth in SCID mice", "format": "in vivo", "conditions": "day 13; 0.5 mg/kg IP weekly; p=0.21", "description": "(§1) The human acute lymphoblastic leukemia cell line MOLT-4 was acquired from American Type Culture Collection (Manassas, VA, USA) and grown in RPMI medium containing 100 units/mL penicillin G sodium, 100 μg/mL streptomycin sulfate. The media was supplemented with 10% heat-inactivated fetal bovine serum, 2 mM L-glutamine, and 0.11% sodium pyruvate. The tumor cells were maintained in a humidified environment of 5% CO2 and 95% air at 37° C. Cells were verified to be free of mouse pathogens by IMPACT IV PCR analysis (IDEXX RADIL, Colombia, MO, USA) before injection.\n(§2) Female SCID mice were purchased from the Ontario Cancer Institute and received and acclimated at the MaRS-TMDT Animal Resources Centre for 2 weeks prior to the start of the experiment. The mice were fed ad libitum autoclaved water and Rodent Lab Diet (Harlan Teklad LM-485) consisting of 19% crude protein, 5% crude fat, and 5% crude fiber. Mice were housed in microisolator cages and maintained in an environment with a 12-hour light cycle at 20-22° C. and 40-60% humidity. On the day of implantation, MOLT-4 cells were harvested and resuspended with serum free DMEM to a concentration of 1×10^8/mL and each mouse was injected subcutaneously with a volume of 0.1 mL containing 1×10^7 MOLT-4 cells in the right rear flank.\nAnimals were dosed Compound (I) via oral gavage in a volume of 10 mL/kg. The animals were dosed with a 2.25 mm×50 mm curved gavage needle affixed to a 1 mL syringe. Vincristine was dosed by IP injection once per week.\n(§3) Toxicity was evaluated by body weight measurements and clinical observations. The mice were observed daily for overt signs of any adverse, treatment related side effects, and clinical signs of toxicity. Acceptable toxicity was set at a group mean body weight loss of less than 20% during the study and not more than one treatment related death in a group. Animals were monitored for body weights and tumor growth where tumor volumes were calculated using the formula: tumor volume=width^2×length/2.\n(§4) The study evaluated Compound (I) fumarate administered by oral gavage for 21 days, either daily at 7.5 mg/kg or 2 days on/5 days off at 13.5 mg/kg, in comparison to the standard-of-care agent vincristine, dosed in 4 weekly intraperitoneal injections of 0.5 mg/kg, in the MOLT-4 […] xenograft model in SCID (severe combined immunodeficiency) mice. Xenografts were established by subcutaneously injecting 1×10^7 tumor cells into the right flank of female SCID mice. Treatment was initiated 9 days following implantation when tumor volumes reached a mean volume of approximately 250 mm^3."}, "[2]": {"system": "MV4-11 acute myeloid leukemia xenograft", "assay": "MV4-11 xenograft tumor growth in SCID mice", "format": "in vivo", "conditions": "day 13; vincristine 0.5 mg/kg IP weekly; p=0.14", "description": "as §1, with “myeloid” for “lymphoblastic”, “MV4-11” for “MOLT-4”\nas §2, with “MV4-11” for “MOLT-4”\nAnimals were dosed Compound (I) via oral gavage in a volume of 10 ml/kg. The animals were dosed with a 2.25 mm×50 mm curved gavage needle affixed to a 1 ml syringe. Vincristine was dosed by IP injection once per week.\nas §3\nas §4, with “gavage,” for “gavage for 21 days,”, “MV4-11” for “MOLT-4”, “14” for “9”, “90” for “250”, “mm^3. […] Animals were dosed in the 2-on/5-off schedule for 21 days. […] By day 13, the average volume of the control tumors was 878 mm^3, averaging […] tumor growth over the 13 days. On day 13 the average tumor growth inhibition in the vincristine treated arm was 85% (p=0.14).” for “mm^3.”"}}}
{"smiles": "CC[C@]1(O)C[C@H]2CN(CCc3c([nH]c4ccccc34)[C@@](C(=O)OC)(c3cc4c(cc3OC)N(C=O)[C@H]3[C@@](O)(C(=O)OC)[C@H](OC(C)=O)[C@]5(CC)C=CCN6CC[C@]43[C@@H]65)C2)C1", "note": "[vincristine, reference compound]", "values": [{"measurement": "average tumor growth inhibition", "setting": "[1]", "result": 18, "unit": "%"}, {"measurement": "average tumor growth inhibition", "setting": "[2]", "result": 85, "unit": "%"}]}
